Measured values published in the supplement of paper PMC10307832.

Experiments:
Experiment in all cases: relative viability (nuclei count vs DMSO), 5 days (fraction); higher = more cells survive
BI-2536 + Pemetrexed = compound: CC[C@@H]1C(=O)N(C)c2cnc(Nc3ccc(C(=O)NC4CCN(C)CC4)cc3OC)nc2N1C1CCCC1 [BI-2536] + Nc1nc2[nH]cc(CCc3ccc(C(=O)N[C@@H](CCC(=O)O)C(=O)O)cc3)c2c(=O)[nH]1 [Pemetrexed] (partner 0.2 µM)
Summary of the method: (§1)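 Lung cancer cell lines were pin-tool dosed in 1536-well plates on the day after seeding, with either a lone drug or a fixed anchor-drug dose plus five library-drug doses (not always all listed) in √10 steps. Nuclei were counted on 4× images after 5 days. Relative viability is the ratio of treated-well to vehicle-well nuclei counts, with each value a median of duplicate plates.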

[1] = compound: CC1CC(=O)N(C2=CN=C(N=C2N1C3CCCC3)NC4=C(C=C(C=C4)C(=O)NC5CCN(CC5)C)OC)C [NPK76-II-72-1] + Cc1nc(Nc2ncc(C(=O)Nc3c(C)cccc3Cl)s2)cc(N2CCN(CCO)CC2)n1 [Dasatinib] (partner 0.075 µM)
Summary of the method: as §1

BI-2536 + Tozasertib = compound: CC[C@@H]1C(=O)N(C)c2cnc(Nc3ccc(C(=O)NC4CCN(C)CC4)cc3OC)nc2N1C1CCCC1 [BI-2536] + Cc1cc(Nc2cc(N3CCN(C)CC3)nc(Sc3ccc(NC(=O)C4CC4)cc3)n2)n[nH]1 [Tozasertib] (partner 0.1 µM)
Summary of the method: as §1

BI-2536 + Bortezomib = compound: CC[C@@H]1C(=O)N(C)c2cnc(Nc3ccc(C(=O)NC4CCN(C)CC4)cc3OC)nc2N1C1CCCC1 [BI-2536] + CC(C)C[C@H](NC(=O)[C@H](Cc1ccccc1)NC(=O)c1cnccn1)B(O)O [Bortezomib] (partner 0.002 µM)
Summary of the method: as §1

Row | Cell Line | relative viability (BI-2536 + Pemetrexed; first compound 0.01 µM) | relative viability (BI-2536 + Pemetrexed; first compound 0.03162 µM) | relative viability (BI-2536 + Pemetrexed; first compound 0.1 µM) | relative viability (BI-2536 + Pemetrexed; first compound 0.3162 µM) | relative viability (BI-2536 + Pemetrexed; first compound 1 µM) | relative viability ([1]; first compound 0.01 µM) | relative viability ([1]; first compound 0.03162 µM) | relative viability ([1]; first compound 0.1 µM) | relative viability ([1]; first compound 0.3162 µM) | relative viability ([1]; first compound 1 µM) | relative viability (BI-2536 + Tozasertib; first compound 0.01 µM) | relative viability (BI-2536 + Tozasertib; first compound 0.03162 µM) | relative viability (BI-2536 + Tozasertib; first compound 0.1 µM) | relative viability (BI-2536 + Tozasertib; first compound 0.3162 µM) | relative viability (BI-2536 + Tozasertib; first compound 1 µM) | relative viability (BI-2536 + Bortezomib; first compound 0.01 µM) | relative viability (BI-2536 + Bortezomib; first compound 0.03162 µM) | relative viability (BI-2536 + Bortezomib; first compound 0.1 µM) | relative viability (BI-2536 + Bortezomib; first compound 0.3162 µM) | relative viability (BI-2536 + Bortezomib; first compound 1 µM)
1 | NCI-H1395 | 0.73 | 0.643 | 0.34 | 0.323 | 0.402 | 0.433 | 0.36 | 0.424 | 0.417 | 0.369 | 0.668 | 0.729 | 0.642 | 0.399 | 0.285 | – | – | – | – | –
2 | NCI-H1563 | 0.736 | 0.789 | 0.744 | 0.413 | 0.473 | 0.465 | 0.416 | 0.469 | 0.461 | 0.425 | – | – | – | – | – | 0.935 | 0.802 | 0.842 | 0.563 | 0.683
3 | NCI-H1623 | – | – | – | – | – | 0.562 | 0.522 | 0.554 | 0.401 | 0.545 | 0.478 | 0.448 | 0.383 | 0.402 | 0.328 | – | – | – | – | –
4 | NCI-H1648 | 0.878 | 0.511 | 0.41 | 0.293 | 0.265 | – | – | – | – | – | 0.437 | 0.414 | 0.336 | 0.159 | 0.22 | – | – | – | – | –
5 | NCI-H1703 | – | – | – | – | – | – | – | – | – | – | – | – | – | – | – | 0.313 | 0.252 | 0.13 | 0.161 | 0.11
6 | NCI-H1792 | 0.779 | 0.792 | 0.328 | 0.0539 | 0.0316 | 0.799 | – | 0.842 | 0.66 | 0.726 | – | – | – | – | – | 0.985 | 1 | 1.06 | 0.716 | 0.147
7 | NCI-H1793 | 0.876 | 1.04 | 0.197 | 0.171 | 0.175 | 0.328 | 0.432 | 0.412 | 0.383 | 0.386 | 0.331 | 0.33 | 0.277 | 0.217 | 0.186 | – | – | – | – | –
8 | NCI-H1944 | 0.631 | 0.649 | 0.425 | 0.18 | 0.142 | 0.205 | 0.219 | 0.224 | 0.221 | 0.226 | 0.25 | 0.268 | 0.234 | 0.234 | 0.195 | – | – | – | – | –
9 | NCI-H2170 | 0.285 | 0.254 | 0.183 | 0.161 | 0.163 | 0.599 | 0.487 | 0.598 | 0.315 | 0.762 | 0.713 | 0.89 | 0.593 | 0.177 | 0.249 | – | – | – | – | –
10 | NCI-H2342 | – | 0.724 | 0.716 | 0.373 | 0.42 | 0.345 | 0.301 | 0.328 | 0.262 | 0.346 | 0.449 | 0.508 | 0.468 | 0.378 | 0.294 | – | – | – | – | –
11 | SK-MES-1 | 0.912 | 0.887 | 0.66 | 0.205 | 0.197 | 0.468 | 0.352 | 0.399 | 0.341 | 0.403 | 0.956 | 0.801 | 0.191 | 0.151 | 0.172 | – | – | – | – | –
12 | SW 900 | 0.492 | 0.468 | 0.46 | 0.198 | 0.149 | 0.496 | 0.574 | 0.378 | 0.78 | 0.572 | 0.566 | 0.694 | 0.418 | 0.278 | 0.173 | – | – | – | – | –
